Results on 5 compounds are retold here after ChEMBL document CHEMBL4304804, “Synthesis and biological evaluation of calycanthaceous alkaloid analogs” (Bioorg Med Chem, 2019).

≈ marks a conversion by molar mass, not a printed value. Calls of active or inactive are those of the source. The calls are words filed in the database; no cut-off is given here.

One experiment relates to Escherichia coli. The experiment is described as follows: Antibacterial activity against Escherichia coli assessed as reduction in bacterial cell growth incubated for 24 hrs by filter paper assay. The format is functional.
Experiment [1] relates to Fusarium oxysporum f. sp. vasinfectum. Description: Antifungal activity against Fusarium oxysporum sp. vasinfectum assessed as reduction in fungal cell growth incubated for 48 hrs by serial dilution method. The format is functional.
Another experiment has as its system Bacillus cereus. The experiment is described as follows: Antibacterial activity against Bacillus cereus assessed as reduction in bacterial cell growth incubated for 24 hrs by filter paper assay. It counts as functional.
The test system of a further experiment is Cytospora. Description: Antifungal activity against Cytospora juglandis assessed as reduction in fungal cell growth incubated for 48 hrs by serial dilution method. The format is functional.
Another experiment concerns Staphylococcus aureus. The experiment is described as follows: Antibacterial activity against Staphylococcus aureus assessed as reduction in bacterial cell growth incubated for 24 hrs by filter paper assay. It counts as functional.
A further experiment deals with Ralstonia solanacearum. Description: Antibacterial activity against Ralstonia solanacearum assessed as reduction in bacterial cell growth incubated for 24 hrs by filter paper assay. The format is functional.
The target of another experiment is Acetylcholinesterase (Electrophorus electricus, UniProt O42275). The experiment is described as follows: Inhibition of electric eel AChE by Ellman's colorimetry.
Experiment [2] deals with Colletotrichum orbiculare. Description: Antifungal activity against Colletotrichum orbiculare assessed as reduction in fungal cell growth incubated for 48 hrs by serial dilution method. It counts as functional.
The test system of another experiment is Aspergillus flavus. The experiment is described as follows: Antifungal activity against Aspergillus flavus assessed as reduction in fungal cell growth incubated for 48 hrs by serial dilution method. The format is functional.
In another experiment the test system is Candida. The experiment is described as follows: Antifungal activity against […] assessed as reduction in fungal cell growth incubated for 48 hrs by serial dilution method. The format is functional.
The subject of another experiment is Candida tropicalis. Description: Antifungal activity against Candida tropicalis assessed as reduction in fungal cell growth incubated for 48 hrs by serial dilution method. The format is functional.
For another experiment, the system named is Penicillium citrinum. The experiment is described as follows: Antifungal activity against Penicillium citrinum assessed as reduction in fungal cell growth incubated for 48 hrs by serial dilution method. It counts as functional.
The subject of another experiment is Verticillium dahliae. Description: Antifungal activity against Verticillium dahliae assessed as reduction in fungal cell growth incubated for 48 hrs by serial dilution method. It counts as functional.
For another experiment, the system named is Pseudomonas aeruginosa. Description: Antibacterial activity against Pseudomonas aeruginosa assessed as reduction in bacterial cell growth incubated for 24 hrs by filter paper assay. The format is functional.
The subject of another experiment is Cryptococcus neoformans. Description: Antifungal activity against Cryptococcus neoformans assessed as reduction in fungal cell growth incubated for 48 hrs by serial dilution method. The format is functional.
For another experiment, the system named is Fusarium oxysporum. Description: Antifungal activity against Fusarium oxysporum assessed as reduction in fungal cell growth incubated for 48 hrs by serial dilution method. The format is functional.
Another experiment has as its system Aspergillus niger. Description: Antifungal activity against Aspergillus niger assessed as reduction in fungal cell growth incubated for 48 hrs by serial dilution method. The format is functional.
The test system of a further experiment is Curvularia lunata. The experiment is described as follows: Antifungal activity against Curvularia lunata assessed as reduction in fungal cell growth incubated for 48 hrs by serial dilution method. The format is functional.

Sequence of Acetylcholinesterase (O42275 whole entry): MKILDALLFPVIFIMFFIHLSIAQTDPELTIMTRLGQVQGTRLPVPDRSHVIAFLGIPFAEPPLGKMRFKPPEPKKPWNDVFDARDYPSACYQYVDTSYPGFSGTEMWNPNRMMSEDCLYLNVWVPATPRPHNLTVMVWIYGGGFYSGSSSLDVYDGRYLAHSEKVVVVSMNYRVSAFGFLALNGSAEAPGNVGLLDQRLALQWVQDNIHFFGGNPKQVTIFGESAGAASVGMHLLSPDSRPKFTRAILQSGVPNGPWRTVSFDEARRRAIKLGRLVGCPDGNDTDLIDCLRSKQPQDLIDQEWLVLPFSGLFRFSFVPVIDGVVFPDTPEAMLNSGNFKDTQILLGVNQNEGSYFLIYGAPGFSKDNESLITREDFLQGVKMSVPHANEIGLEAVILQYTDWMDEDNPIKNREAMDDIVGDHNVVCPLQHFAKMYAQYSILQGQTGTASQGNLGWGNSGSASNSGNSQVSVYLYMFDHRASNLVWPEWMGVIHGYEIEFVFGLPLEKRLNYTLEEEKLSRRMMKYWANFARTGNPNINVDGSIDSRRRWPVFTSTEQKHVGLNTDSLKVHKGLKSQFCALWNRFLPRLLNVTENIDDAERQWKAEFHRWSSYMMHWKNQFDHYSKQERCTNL

For orientation: MIC means the lowest concentration found to suppress growth. Broadly, the IC50 is the concentration that gives 50% inhibition. A high value points to weaker potency. Turning to `CCCCC(=O)N1CCC2(Cc3ccccc3C)c3ccccc3N(Cc3ccccc3C)C12` (stereo not given), the MIC with Escherichia coli, with Bacillus cereus, in the experiment on Cytospora, in the experiment with Staphylococcus aureus, with Ralstonia solanacearum and in the experiment with Aspergillus flavus was 250 µg/mL (≈ 552 µM) each time. Besides, the minimum inhibitory concentration (MIC) stood at 250 µg/mL (≈ 552 µM) in the experiment on Candida; 125 µg/mL (≈ 276 µM) in the experiment with Candida tropicalis; 250 µg/mL (≈ 552 µM) with Penicillium citrinum; 31.2 µg/mL (≈ 69 µM) with Verticillium dahliae; 250 µg/mL (≈ 552 µM) in the experiment with Pseudomonas aeruginosa; 125 µg/mL (≈ 276 µM) with Fusarium oxysporum. Besides, the minimum inhibitory concentration (MIC) in the experiment with Aspergillus niger is 250 µg/mL (≈ 552 µM). Further, the MIC entry (in experiment [1]; in [2]; in the experiment on Cryptococcus neoformans; with Curvularia lunata) was “inactive” in each case. This compound had an IC50 on Acetylcholinesterase of 328 µM.
For `CCCC(=O)N1CCCC2(O)c3ccccc3N(C)C12` (stereo not given), the MIC result (in the experiment on Escherichia coli; in experiment [1]; in the experiment with Bacillus cereus; in the experiment with Cytospora; in the experiment with Staphylococcus aureus; in [2]) was “inactive” in each case. Also, the MIC entry in the experiment on Aspergillus flavus, in the experiment with Candida, in the experiment with Candida tropicalis, in the experiment with Penicillium citrinum, with Cryptococcus neoformans and with Fusarium oxysporum was “inactive” in each case. Further, the MIC entry with Aspergillus niger and in the experiment on Curvularia lunata was “inactive” throughout. Besides, the MIC in the experiment on Ralstonia solanacearum came out at 31.2 µg/mL (≈ 114 µM); with Verticillium dahliae, 250 µg/mL (≈ 911 µM); in the experiment on Pseudomonas aeruginosa it was 250 µg/mL (≈ 911 µM). The compound further showed a half-maximal inhibitory concentration (IC50) against Acetylcholinesterase of 122 µM.
Take `Cc1cccc(CN2c3ccccc3C3(Cc4cccc(C)c4)CCN(C(=O)c4ccccc4)C23)c1` (stereo not given): the MIC entry with Escherichia coli, with Bacillus cereus, in the experiment with Staphylococcus aureus, in the experiment with Ralstonia solanacearum, in the experiment with Candida and with Candida tropicalis was “inactive” each time. The MIC result in the experiment with Pseudomonas aeruginosa, in the experiment on Cryptococcus neoformans and with Curvularia lunata was “inactive” throughout. Moreover, the minimum inhibitory concentration (MIC) is 62.5 µg/mL (≈ 132 µM) in [1]; 62.5 µg/mL (≈ 132 µM) in the experiment on Cytospora; 250 µg/mL (≈ 529 µM) in experiment [2]; 250 µg/mL (≈ 529 µM) with Aspergillus flavus; 250 µg/mL (≈ 529 µM) in the experiment with Penicillium citrinum; 31.2 µg/mL (≈ 66.1 µM) in the experiment on Verticillium dahliae. Also, the MIC in the experiment with Fusarium oxysporum and in the experiment on Aspergillus niger was 250 µg/mL (≈ 529 µM) in each case. The same compound showed an IC50 against Acetylcholinesterase of 45.1 µM.
In the case of `Cc1cccc(C(=O)N2CCCC3(O)c4ccccc4N(C)C23)c1` (stereo not given), the MIC result (in the experiment on Escherichia coli; in experiment [1]; with Bacillus cereus; in the experiment with Cytospora; in experiment [2]; in the experiment with Aspergillus flavus) was “inactive” each time. The MIC result with Candida, in the experiment with Penicillium citrinum, in the experiment on Cryptococcus neoformans, in the experiment with Fusarium oxysporum, in the experiment on Aspergillus niger and with Curvularia lunata was “inactive” throughout. Further, the minimum inhibitory concentration (MIC) in the experiment with Staphylococcus aureus was found to be 250 µg/mL (≈ 775 µM); in the experiment with Ralstonia solanacearum, 62.5 µg/mL (≈ 194 µM); with Candida tropicalis, 250 µg/mL (≈ 775 µM); in the experiment with Verticillium dahliae it was 250 µg/mL (≈ 775 µM); in the experiment with Pseudomonas aeruginosa, 250 µg/mL (≈ 775 µM). This compound also had an IC50 against Acetylcholinesterase of 5.52 µM.
With `Cc1cccc(CN2c3ccccc3C3(Cc4cccc(C)c4)CCN(C(=O)C(F)(F)F)C23)c1` (stereo not given), the MIC entry (in the experiment with Escherichia coli; in [1]; with Bacillus cereus; in the experiment on Staphylococcus aureus; with Ralstonia solanacearum; in experiment [2]) was “inactive” each time. The MIC result in the experiment with Candida, in the experiment with Candida tropicalis, with Penicillium citrinum, in the experiment on Verticillium dahliae, in the experiment on Pseudomonas aeruginosa and in the experiment on Cryptococcus neoformans was “inactive” throughout. Moreover, the MIC entry in the experiment with Aspergillus niger and with Curvularia lunata was “inactive” each time. Besides, the MIC in the experiment on Cytospora, in the experiment on Aspergillus flavus and in the experiment on Fusarium oxysporum was 250 µg/mL (≈ 538 µM) each time. For the same compound, the IC50 against Acetylcholinesterase was 3.38 µM.
